From ChEMBL document CHEMBL1201862, “PubChem BioAssay data set” (2004)
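Tested at 5 concentrations; 48 h exposure; 96-well plates; endpoints linearly interpolated, else capped at highest concentration. The concentration for 50% growth inhibition is given as GI50.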 Activity calls are given as the source filed them. Cut-off read from the data, not from the text of the source: active = GI50 up to about 1.1 µM and inactive = higher.

How the values were obtained:
Assay in all cases: growth of human tumour cells (NCI), 48 h
DMS-273 = system: DMS-273
LXFL 529 = system: LXFL 529
XF498 = system: XF498
M19-MEL = system: M19-MEL
KM-20L2 = system: KM-20L2
SNB-78 = system: SNB-78
DLD-1 = system: DLD-1
HOP-18 = system: HOP-18
RXF 631 = system: RXF 631

Structure (SMILES)	GI50 (DMS-273)	GI50 (LXFL 529)	GI50 (XF498)	GI50 (M19-MEL)	GI50 (KM-20L2)	GI50 (SNB-78)	GI50 (DLD-1)	GI50 (HOP-18)	GI50 (RXF 631)
Cc1ccc(C[P+]2(c3ccccc3)CCCCC2)cc1.[O-][Cl+3]([O-])([O-])[O-]	35 µM (inactive)	14 µM (inactive)	< 0.01 µM (active)	15.7 µM (inactive)	31.2 µM (inactive)	25.9 µM (inactive)	84.3 µM (inactive)	–	–
COC(=O)[C@@]12C(=O)CCC(=O)C1C1C(=CC2C)O[C@@H]2OC3(CCCCC3)O[C@H]12 (stereo partly drawn)	> 100 µM (inactive)	44.5 µM (inactive)	> 38.4 µM (inactive)	61.9 µM (inactive)	> 100 µM (inactive)	> 100 µM (inactive)	58.3 µM (inactive)	> 64.3 µM (inactive)	–
O=C(NCCCCCCNC(=O)n1cc(F)c(=O)[nH]c1=O)NCCCOCCOCCOCCOCCOCCOCCOCCOCCOCCOCCOCCOCCOCCOCCOCCOCCOCCOCCOCCOCCOCCCNC(=O)C(O)C(O)C(O)C(O)CO (stereo not drawn)	33.3 µM (inactive)	–	15.6 µM (inactive)	61.7 µM (inactive)	22.5 µM (inactive)	> 100 µM (inactive)	9.33 µM (inactive)	> 100 µM (inactive)	–
CCCCCCCCCCC(=O)CC(=O)c1c(O)cccc1O	23.8 µM (inactive)	36.3 µM (inactive)	19.5 µM (inactive)	25.8 µM (inactive)	50.2 µM (inactive)	33.5 µM (inactive)	44.6 µM (inactive)	18.9 µM (inactive)	47.3 µM (inactive)
NC(=O)C1C(=O)Oc2cccnc21 (stereo not drawn)	> 100 µM (inactive)	–	> 100 µM (inactive)	> 100 µM (inactive)	> 100 µM (inactive)	–	> 100 µM (inactive)	> 100 µM (inactive)	–
CSC(=S)c1ccc(C(=S)SC)cc1	> 100 µM (inactive)	> 100 µM (inactive)	> 100 µM (inactive)	> 100 µM (inactive)	> 100 µM (inactive)	> 100 µM (inactive)	> 100 µM (inactive)	> 100 µM (inactive)	> 100 µM (inactive)
O=C1OC(c2ccccc2)=N/C1=C\c1cccc2ccccc12	> 100 µM (inactive)	> 100 µM (inactive)	> 100 µM (inactive)	> 100 µM (inactive)	–	> 100 µM (inactive)	> 100 µM (inactive)	> 100 µM (inactive)	–
[O-][S+]1c2ccccc2N=C(c2cccs2)CC1c1ccccc1O (stereo not drawn)	–	> 100 µM (inactive)	32.1 µM (inactive)	> 100 µM (inactive)	> 100 µM (inactive)	–	60.8 µM (inactive)	–	> 100 µM (inactive)
CCCOC(=O)C1CCC(=O)N1C(=O)C(Cl)Cl (stereo not drawn)	> 100 µM (inactive)	> 100 µM (inactive)	> 100 µM (inactive)	> 100 µM (inactive)	> 100 µM (inactive)	> 100 µM (inactive)	> 100 µM (inactive)	> 100 µM (inactive)	–
COC(=O)C(C(=O)C(=O)Nc1ccc([N+](=O)[O-])cc1[N+](=O)[O-])c1nc2ccc(Cl)cc2nc1O (stereo not drawn)	> 100 µM (inactive)	–	> 100 µM (inactive)	> 100 µM (inactive)	> 100 µM (inactive)	> 100 µM (inactive)	> 100 µM (inactive)	59.3 µM (inactive)	–
CC(=O)OCC1(C)C(OC(C)=O)CCC2(C)C(CC(OC(C)=O)C3=CCOC3=O)C(O)(CO)CCC12 (stereo not drawn)	> 100 µM (inactive)	> 100 µM (inactive)	> 100 µM (inactive)	> 100 µM (inactive)	> 100 µM (inactive)	> 100 µM (inactive)	> 100 µM (inactive)	> 100 µM (inactive)	> 100 µM (inactive)
CC(=O)c1sc(-c2nc(C)c(C(=O)/C=C\c3ccc(/C=C\C(=O)c4sc(-c5nc(C)c(C(C)=O)s5)nc4C)cc3)s2)nc1C	> 100 µM (inactive)	> 100 µM (inactive)	> 100 µM (inactive)	> 100 µM (inactive)	> 100 µM (inactive)	> 100 µM (inactive)	> 100 µM (inactive)	> 100 µM (inactive)	–
C=C(CC(NC(=O)c1ccc(C(CC)Cc2cnc3nc(N)nc(N)c3n2)cc1)C(=O)O)C(=O)O (stereo not drawn)	0.000644 µM (active)	0.00239 µM (active)	–	–	0.01 µM (active)	27.7 µM (inactive)	0.000574 µM (active)	0.0429 µM (active)	–
CCC/N=C/c1c(O)c(O)c(C(C)C)c2cc(C)c(-c3c(C)cc4c(C(C)C)c(O)c(O)c(/C=N/CCC)c4c3O)c(O)c12	–	3.73 µM (inactive)	–	4.05 µM (inactive)	2.86 µM (inactive)	2.58 µM (inactive)	–	–	–
N#CN=C(NCc1ccccc1)NCc1ccccc1	> 41.9 µM (inactive)	> 92 µM (inactive)	> 77.1 µM (inactive)	> 54.7 µM (inactive)	> 100 µM (inactive)	> 100 µM (inactive)	> 47.4 µM (inactive)	> 100 µM (inactive)	–
COc1ccc(Cc2c(=O)[nH]nc3ccccc23)cc1	> 100 µM (inactive)	–	33 µM (inactive)	> 100 µM (inactive)	> 100 µM (inactive)	> 100 µM (inactive)	> 100 µM (inactive)	> 100 µM (inactive)	> 100 µM (inactive)
CCOC(=O)C12C(C(=O)OC)=C(C)N(NC(=O)Nc3ccccc3)C1(N)N(NC(=O)Nc1ccccc1)C(C)=C2C(=O)OC (stereo not drawn)	27.7 µM (inactive)	26.1 µM (inactive)	24.3 µM (inactive)	18 µM (inactive)	20.5 µM (inactive)	47.4 µM (inactive)	41.5 µM (inactive)	32.9 µM (inactive)	–
Cc1ccc(-c2cc(=O)c3cc(C)c(C)c(C(=O)O)c3o2)cc1[N+](=O)[O-]	> 100 µM (inactive)	> 100 µM (inactive)	–	> 100 µM (inactive)	> 100 µM (inactive)	> 100 µM (inactive)	> 100 µM (inactive)	> 100 µM (inactive)	–
O=C1c2ccccc2C(=O)N1/N=C\c1ccc(Br)cc1	> 10 µM (inactive)	> 10 µM (inactive)	> 10 µM (inactive)	> 10 µM (inactive)	> 10 µM (inactive)	> 10 µM (inactive)	> 10 µM (inactive)	> 10 µM (inactive)	> 10 µM (inactive)
O=C(O)OC12CCCCCC1C(=O)C1CCCCC12 (stereo not drawn)	62.5 µM (inactive)	> 100 µM (inactive)	82.6 µM (inactive)	> 100 µM (inactive)	> 100 µM (inactive)	> 100 µM (inactive)	–	> 100 µM (inactive)	–
O=C(NCC(O)CNC(=O)C(F)(F)F)C(F)(F)F	> 100 µM (inactive)	> 100 µM (inactive)	> 100 µM (inactive)	> 100 µM (inactive)	> 100 µM (inactive)	> 100 µM (inactive)	> 100 µM (inactive)	> 100 µM (inactive)	–
Cc1ccc(N2C(=O)CS/C2=C(\C#N)c2nc3ccccc3[nH]2)cc1	> 100 µM (inactive)	> 100 µM (inactive)	> 100 µM (inactive)	> 100 µM (inactive)	> 100 µM (inactive)	–	> 100 µM (inactive)	> 100 µM (inactive)	–
Cc1cc(Cl)ccc1N1C(=O)C(=O)C(c2nc3ccccc3s2)/C(=N\NC(=O)c2ccccc2O)C1=O (stereo not drawn)	> 100 µM (inactive)	> 100 µM (inactive)	–	> 100 µM (inactive)	> 100 µM (inactive)	> 100 µM (inactive)	> 100 µM (inactive)	> 100 µM (inactive)	> 100 µM (inactive)
CC(C)N(C(=O)C12C3C4C5(C#N)C3C1(I)C5C42I)C(C)C (stereo not drawn)	> 57.7 µM (inactive)	> 71.6 µM (inactive)	> 100 µM (inactive)	> 58.2 µM (inactive)	> 66.7 µM (inactive)	67.9 µM (inactive)	> 92.7 µM (inactive)	97.5 µM (inactive)	–
Cc1nc2ccc(N)cc2nc1O	> 100 µM (inactive)	> 100 µM (inactive)	–	> 100 µM (inactive)	> 100 µM (inactive)	> 100 µM (inactive)	> 100 µM (inactive)	–	> 100 µM (inactive)
CN(C)CC(C)(C)C(=O)/C=C/c1ccc(/C=C/C(=O)C(C)(C)CN(C)C)cc1	0.706 µM (active)	1.17 µM (inactive)	1.22 µM (inactive)	1.66 µM (inactive)	1.04 µM (active)	–	0.28 µM (active)	–	2 µM (inactive)
